By EC50 is commonly meant the concentration that produces a half-maximal response.

Drawing on publication PMC11530122, “Mutant induced neurons and humanized mice enable identification of Niemann-Pick type C1 proteostatic therapies” (JCI Insight, 2024), this text covers EC50 for 1 substance.

The test deals with T1, NPC1 (Homo sapiens, UniProt O15118).
T1 construct: full-length WT human NPC1, C-terminal Strep tag, in peptidiscs
T1 sequence (O15118 23-1278): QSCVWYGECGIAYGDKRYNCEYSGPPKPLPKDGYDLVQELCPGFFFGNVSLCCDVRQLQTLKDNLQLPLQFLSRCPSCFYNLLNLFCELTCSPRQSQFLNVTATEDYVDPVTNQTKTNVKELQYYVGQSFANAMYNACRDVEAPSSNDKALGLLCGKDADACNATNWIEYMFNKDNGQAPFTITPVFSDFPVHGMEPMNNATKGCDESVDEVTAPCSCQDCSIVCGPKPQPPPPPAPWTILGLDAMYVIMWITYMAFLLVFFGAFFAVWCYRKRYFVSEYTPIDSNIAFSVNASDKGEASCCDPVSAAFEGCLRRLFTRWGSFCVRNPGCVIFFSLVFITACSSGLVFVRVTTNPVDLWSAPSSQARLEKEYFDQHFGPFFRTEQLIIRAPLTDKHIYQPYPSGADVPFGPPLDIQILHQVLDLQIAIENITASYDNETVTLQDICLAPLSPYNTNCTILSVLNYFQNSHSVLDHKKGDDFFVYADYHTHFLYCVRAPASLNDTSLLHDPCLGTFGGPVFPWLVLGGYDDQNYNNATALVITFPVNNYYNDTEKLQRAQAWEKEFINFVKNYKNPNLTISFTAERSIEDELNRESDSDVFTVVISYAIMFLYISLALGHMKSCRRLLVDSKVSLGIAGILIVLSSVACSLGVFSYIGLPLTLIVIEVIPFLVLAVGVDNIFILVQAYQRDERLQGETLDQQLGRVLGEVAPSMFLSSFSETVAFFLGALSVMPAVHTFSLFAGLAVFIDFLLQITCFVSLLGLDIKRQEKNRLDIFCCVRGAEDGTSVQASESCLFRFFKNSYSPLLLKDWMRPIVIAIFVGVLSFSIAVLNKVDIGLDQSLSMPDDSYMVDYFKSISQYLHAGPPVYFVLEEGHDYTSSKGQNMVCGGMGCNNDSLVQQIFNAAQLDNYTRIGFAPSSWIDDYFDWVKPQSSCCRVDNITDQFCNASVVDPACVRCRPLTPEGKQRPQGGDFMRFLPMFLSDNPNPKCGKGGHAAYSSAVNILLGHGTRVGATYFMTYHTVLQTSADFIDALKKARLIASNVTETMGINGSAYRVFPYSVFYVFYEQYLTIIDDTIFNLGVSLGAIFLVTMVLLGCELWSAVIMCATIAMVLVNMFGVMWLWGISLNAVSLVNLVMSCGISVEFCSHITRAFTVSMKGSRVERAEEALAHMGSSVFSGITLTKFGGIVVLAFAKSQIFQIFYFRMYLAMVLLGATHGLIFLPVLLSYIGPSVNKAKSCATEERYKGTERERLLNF
Kind of test: microscale thermophoresis; nanoDSF thermal stability with purified NPC1 (EC50 approximately […]). It is filed as binding. A general note: MST reads how a fluorescent partner responds to local heating, with and without ligand.

As for mo56-hydroxycholesterol [mo56Hc], the response was half-maximal at 177 nM (EC50).
